The assay has as its target T1, Adenosine receptor A1 (Cavia porcellus, UniProt P47745).
T1 sequence (P47745 whole entry): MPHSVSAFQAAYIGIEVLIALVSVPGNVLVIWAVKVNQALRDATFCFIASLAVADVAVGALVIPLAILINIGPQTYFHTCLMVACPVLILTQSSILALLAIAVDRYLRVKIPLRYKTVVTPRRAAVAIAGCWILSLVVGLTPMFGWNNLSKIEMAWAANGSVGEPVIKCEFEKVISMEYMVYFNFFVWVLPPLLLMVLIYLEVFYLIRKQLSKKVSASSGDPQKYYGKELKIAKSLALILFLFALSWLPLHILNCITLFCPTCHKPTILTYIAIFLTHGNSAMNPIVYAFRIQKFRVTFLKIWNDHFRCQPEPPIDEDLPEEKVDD
The assay is described as follows: Tested for adenosine A1 receptor agonistic activity by determining concentration needed to prolong the stimulus-QRS interval by 50% of the maximum response.

Structures are written as SMILES.

In general, EC50 refers to the midpoint of the concentration-response curve. In turn, `Nc1nc(N=NCc2ccccn2)nc2c1ncn2C1O[C@H](CO)[C@@H](O)[C@H]1O` (some centres not stated) registered an EC50 of 41.7 µM.

`Nc1nc(N=NCc2ccccc2)nc2c1ncn2C1O[C@H](CO)[C@@H](O)[C@H]1O` (some centres not stated): the EC50 amounted to 83.2 µM.

The compound `Nc1nc(N=NCc2cccs2)nc2c1ncn2C1O[C@H](CO)[C@@H](O)[C@H]1O` (some centres not stated) yielded an EC50 of 41.7 µM.

For the compound `Nc1nc(N=NCc2ccccc2F)nc2c1ncn2C1O[C@H](CO)[C@@H](O)[C@H]1O` (some centres not stated), the EC50 amounted to 41.7 µM.

In turn, `Nc1nc(N=NCc2cccc(Cl)c2)nc2c1ncn2C1O[C@H](CO)[C@@H](O)[C@H]1O` (some centres not stated) displayed an EC50 of 49 µM.

The compound `Nc1nc(N=NCCc2ccccc2)nc2c1ncn2C1O[C@H](CO)[C@@H](O)[C@H]1O` (some centres not stated) gave an EC50 of 83.2 µM. Compared with the last compound, the EC50 is about 1.7-fold higher.

Compound `Nc1nc(N=NCc2ccccc2Cl)nc2c1ncn2C1O[C@H](CO)[C@@H](O)[C@H]1O` (some centres not stated) displayed an EC50 of 49 µM.
